Assay results published in patent publication US7112586B2, “Substituted diamine derivatives useful as motilin antagonists” (Ortho-McNeil Pharmaceutical, Inc., priority 2000, dated 2006).
Like-named read-outs stand apart in the source and are kept apart here.

Molecular target: T1, Motilin Receptor (Oryctolagus cuniculus, UniProt G1T803)
T1 construct: The muscle tissue was homogenized in 10 volumes of 50 mM Tris-Cl; from tissue; host or cells: rabbit colon smooth muscle, crude membrane homogenate
T1 sequence (G1T803 1-400): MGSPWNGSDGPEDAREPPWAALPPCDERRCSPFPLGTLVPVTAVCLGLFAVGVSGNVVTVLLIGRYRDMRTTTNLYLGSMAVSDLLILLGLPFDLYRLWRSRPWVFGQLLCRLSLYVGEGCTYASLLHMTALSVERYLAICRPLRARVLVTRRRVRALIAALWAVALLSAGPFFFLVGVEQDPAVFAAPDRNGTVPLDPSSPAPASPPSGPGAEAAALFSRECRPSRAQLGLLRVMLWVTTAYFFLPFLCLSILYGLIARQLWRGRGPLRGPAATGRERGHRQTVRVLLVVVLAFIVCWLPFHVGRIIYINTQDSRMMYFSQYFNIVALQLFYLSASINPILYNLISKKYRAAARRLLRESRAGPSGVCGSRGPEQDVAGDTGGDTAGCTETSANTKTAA
Experiment: Motilin receptor binding, rabbit colon membranes, 125I porcine motilin
Parameters: Rabbit Colon % Inh / inhibition / % Inh (Rabbit colon): dose or concentration left out as unconfirmed
Conditions: for inhibition: read-out: Rabbit Colon % Inh
Description: Rabbit colon was removed, dissected free from the mucosa and serosa, and diced into small pieces. The muscle tissue was homogenized in 10 volumes of 50 mM Tris-Cl, 10 mM MgCl2, 0.1 mg/ml bacitracin, and 0.25 mM Peflabloc, at pH 7.5 in a Polytron (29000 rpm, 4×15 seconds). The homogenate was centrifuged at 1000×g for 15 minutes and the supernatant discarded. The pellet was washed twice before being suspended in homogenizing buffer. The crude homogenate was resuspended through a 23 gauge needle before storing at −80° C. […] After 60 minutes at 30° C., the samples were cooled in ice, centrifuged in the cold at 13000×g for 1 minute. The pellet was washed twice with 1 ml of cold saline, the supernatant was aspirated, and the pellet at the bottom of the tube counted in a gamma counter. Non-specific binding was determined by the inclusion of 1 mM of unlabeled motilin. IC50 values were determined from Kaleidograph curves.

[1] = rabbit colon membranes, read-out: Rabbit Colon IC50

SMILES | Rabbit Colon % Inh (rabbit colon membranes) [%] | other results
CN(CCOc1cccc(N(CC2CCCC(N(Cc3cccc(Cl)c3)C(=O)C(C)(C)C)C2)C(=O)c2ccc(F)cc2)c1)Cc1ccccc1 (racemic) [compound 232] | 62 | –
CN1CCCC1CCOc1cccc(N(CC2CCCC(N(Cc3cccc(Cl)c3)C(=O)C(C)(C)C)C2)C(=O)c2ccc(F)cc2)c1 (racemic) [compound 235] | 61 | –
CN1CCCC1CCOc1cccc(N(CC2CCCC(N(Cc3cccc(Cl)c3)C(=O)C(Cl)(Cl)Cl)C2)C(=O)c2ccc(F)cc2)c1 (racemic) [compound 236] | 53 | –
O=C(c1ccc(F)cc1)N(C[C@H]1CCC[C@@H](N(Cc2cccc(Cl)c2)C(=O)C(Cl)(Cl)Cl)C1)c1cccc(OCCN2CCCCC2)c1 [ID 239] | – | IC50 [1]: 73 nM
O=C(CCCN(C(=O)Nc1ccccc1)c1cccc(OCCN2CCOCC2)c1)N(CCc1ccccc1)Cc1ccccc1 [compound 1] | – | inhibition (rabbit colon membranes): 35%
Cc1ccc(S(=O)(=O)N(CCCC(=O)N(CCc2ccccc2)Cc2ccccc2)c2cccc(OCCN3CCOCC3)c2)cc1 [compound 2] | 9 | –
Cc1ccc(C(=O)N(CCCC(=O)N(CCc2ccccc2)Cc2ccccc2)c2cccc(OCCN3CCOCC3)c2)cc1 [compound 3] | 35 | –
O=C(CCCN(C(=O)c1ccc(F)cc1)c1cccc(OCCN2CCOCC2)c1)N(CCc1ccccc1)Cc1ccccc1 [compound 4] | – | IC50: 690 nM; inhibition: 75%
O=C(CCCCN(C(=O)Nc1ccccc1)c1cccc(OCCN2CCOCC2)c1)N(CCc1ccccc1)Cc1ccccc1 [compound 5] | 40 | –
Cc1ccc(C(=O)N(CCCCC(=O)N(CCc2ccccc2)Cc2ccccc2)c2cccc(OCCN3CCOCC3)c2)cc1 [compound 6] | 24 | –
O=C(CCCCN(C(=O)c1ccc(F)cc1)c1cccc(OCCN2CCOCC2)c1)N(CCc1ccccc1)Cc1ccccc1 [compound 7] | 42 | –
CCN(Cc1ccccc1)C(=O)CCCN(C(=O)Nc1ccccc1)c1cccc(OCCN2CCOCC2)c1 [compound 8] | 18 | –
CCN(Cc1ccccc1)C(=O)CCCN(c1cccc(OCCN2CCOCC2)c1)S(=O)(=O)c1ccc(C)cc1 [compound 9] | 27 | –
CCN(Cc1ccccc1)C(=O)CCCN(C(=O)c1ccc(C)cc1)c1cccc(OCCN2CCOCC2)c1 [compound 10] | 29 | –
CCN(Cc1ccccc1)C(=O)CCCN(C(=O)c1ccc(F)cc1)c1cccc(OCCN2CCOCC2)c1 [compound 11] | 0 | –
CCN(Cc1ccccc1)C(=O)CCCCN(c1cccc(OCCN2CCOCC2)c1)S(=O)(=O)c1ccc(C)cc1 [compound 12] | 4 | –
CCN(Cc1ccccc1)C(=O)CCCCN(C(=O)c1ccc(C)cc1)c1cccc(OCCN2CCOCC2)c1 [compound 13] | 21 | –
CCN(Cc1ccccc1)C(=O)CCCCN(C(=O)c1ccc(F)cc1)c1cccc(OCCN2CCOCC2)c1 [compound 14] | 25 | –
CN(Cc1ccccc1)C(=O)CCCN(C(=O)Nc1ccccc1)c1cccc(OCCN2CCOCC2)c1 [compound 15] | 21 | –

SMILES | Rabbit Colon % Inh (rabbit colon membranes) [%] | other results
Cc1ccc(S(=O)(=O)N(CCCC(=O)N(C)Cc2ccccc2)c2cccc(OCCN3CCOCC3)c2)cc1 [compound 16] | 21 | –
Cc1ccc(C(=O)N(CCCC(=O)N(C)Cc2ccccc2)c2cccc(OCCN3CCOCC3)c2)cc1 [compound 17] | 12 | –
CN(Cc1ccccc1)C(=O)CCCN(C(=O)c1ccc(F)cc1)c1cccc(OCCN2CCOCC2)c1 [compound 18] | 0 | –
CN(Cc1ccccc1)C(=O)CCCCN(C(=O)Nc1ccccc1)c1cccc(OCCN2CCOCC2)c1 [compound 19] | 5 | –
Cc1ccc(S(=O)(=O)N(CCCCC(=O)N(C)Cc2ccccc2)c2cccc(OCCN3CCOCC3)c2)cc1 [compound 20] | 8 | –
Cc1ccc(C(=O)N(CCCCC(=O)N(C)Cc2ccccc2)c2cccc(OCCN3CCOCC3)c2)cc1 [compound 21] | 34 | –
CN(Cc1ccccc1)C(=O)CCCCN(C(=O)c1ccc(F)cc1)c1cccc(OCCN2CCOCC2)c1 [compound 22] | 23 | –
O=C(CCCN(C(=O)Nc1ccccc1)c1cccc(OCCN2CCOCC2)c1)N(Cc1ccccc1)Cc1ccccc1 [compound 23] | 48 | –
Cc1ccc(S(=O)(=O)N(CCCC(=O)N(Cc2ccccc2)Cc2ccccc2)c2cccc(OCCN3CCOCC3)c2)cc1 [compound 24] | 6 | –
Cc1ccc(C(=O)N(CCCC(=O)N(Cc2ccccc2)Cc2ccccc2)c2cccc(OCCN3CCOCC3)c2)cc1 [compound 25] | 23 | –
O=C(CCCCN(C(=O)Nc1ccccc1)c1cccc(OCCN2CCOCC2)c1)N(Cc1ccccc1)Cc1ccccc1 [compound 26] | 22 | –
Cc1ccc(S(=O)(=O)N(CCCCC(=O)N(Cc2ccccc2)Cc2ccccc2)c2cccc(OCCN3CCOCC3)c2)cc1 [compound 27] | 22 | –
Cc1ccc(C(=O)N(CCCCC(=O)N(Cc2ccccc2)Cc2ccccc2)c2cccc(OCCN3CCOCC3)c2)cc1 [compound 28] | 13 | –
O=C(CCCCN(C(=O)c1ccc(F)cc1)c1cccc(OCCN2CCOCC2)c1)N(Cc1ccccc1)Cc1ccccc1 [compound 29] | 18 | –
CCN(Cc1ccc(C)cc1)C(=O)CCCN(C(=O)Nc1ccccc1)c1cccc(OCCN2CCOCC2)c1 [compound 30] | 17 | –
CCN(Cc1ccc(C)cc1)C(=O)CCCN(c1cccc(OCCN2CCOCC2)c1)S(=O)(=O)c1ccc(C)cc1 [compound 31] | 39 | –
CCN(Cc1ccc(C)cc1)C(=O)CCCN(C(=O)c1ccc(C)cc1)c1cccc(OCCN2CCOCC2)c1 [compound 32] | 12 | –
CCN(Cc1ccc(C)cc1)C(=O)CCCN(C(=O)c1ccc(F)cc1)c1cccc(OCCN2CCOCC2)c1 [compound 33] | 16 | –
CCN(Cc1ccc(C)cc1)C(=O)CCCCN(C(=O)Nc1ccccc1)c1cccc(OCCN2CCOCC2)c1 [compound 34] | 7 | –

SMILES | Rabbit Colon % Inh (rabbit colon membranes) [%] | other results
CCN(Cc1ccc(C)cc1)C(=O)CCCCN(c1cccc(OCCN2CCOCC2)c1)S(=O)(=O)c1ccc(C)cc1 [compound 35] | 17 | –
CCN(Cc1ccc(C)cc1)C(=O)CCCCN(C(=O)c1ccc(C)cc1)c1cccc(OCCN2CCOCC2)c1 [compound 36] | 32 | –
CCN(Cc1ccc(C)cc1)C(=O)CCCCN(C(=O)c1ccc(F)cc1)c1cccc(OCCN2CCOCC2)c1 [compound 37] | 11 | –
O=C(Nc1ccccc1)N(c1cccc(OCCN2CCOCC2)c1)C1CCC(CN(Cc2cccc(Cl)c2)C(=O)C(Cl)(Cl)Cl)C1 (centres unmarked) [compound 39] | – | inhibition (rabbit colon membranes): 4%
O=C(Nc1ccccc1)N(CC1CCCC(N(Cc2ccccc2)C(=O)Nc2ccccc2)C1)c1cccc(OCCN2CCOCC2)c1 (centres unmarked) [compound 40] | – | inhibition (rabbit colon membranes): 11%
COc1cccc(C(=O)N(Cc2ccccc2)C2CCCC(CN(C(=O)Nc3ccccc3)c3cccc(OCCN4CCOCC4)c3)C2)c1 (centres unmarked) [compound 41] | 58 | –
CC(C)(C)C(=O)N(Cc1ccccc1)C1CCCC(CN(C(=O)Nc2ccccc2)c2cccc(OCCN3CCOCC3)c2)C1 (centres unmarked) [compound 42] | 50 | –
O=C(Nc1ccccc1)N(CC1CCCC(N(Cc2ccccc2)C(=O)CCc2ccccc2)C1)c1cccc(OCCN2CCOCC2)c1 (centres unmarked) [compound 43] | – | inhibition (rabbit colon membranes): 74%; IC50 [1]: 730 nM
O=C(Nc1ccccc1)N(CC1CCCC(N(Cc2ccccc2)C(=O)c2ccc3ccccc3c2)C1)c1cccc(OCCN2CCOCC2)c1 (centres unmarked) [compound 44] | 4 | –
O=C(Nc1ccccc1)N(CC1CCCC(N(Cc2ccccc2)C(=O)c2cccc([N+](=O)[O-])c2)C1)c1cccc(OCCN2CCOCC2)c1 (centres unmarked) [compound 45] | – | inhibition (rabbit colon membranes): 67%; IC50 [1]: 1160 nM
O=C(Nc1ccccc1)N(CC1CCCC(N(Cc2ccccc2)C(=O)C(c2ccccc2)c2ccccc2)C1)c1cccc(OCCN2CCOCC2)c1 (centres unmarked) [compound 46] | 32 | –
O=C(Nc1ccccc1)N(CC1CCCC(N(Cc2cccc(Cl)c2)C(=O)C(Cl)(Cl)Cl)C1)c1cccc(OCCN2CCOCC2)c1 (centres unmarked) [compound 47] | 23 | –
O=C(Nc1ccccc1)N(CC1CCCC(N(Cc2ccccc2)C(=O)c2ccco2)C1)c1cccc(OCCN2CCOCC2)c1 (centres unmarked) [compound 48] | – | inhibition (rabbit colon membranes): 67%; IC50 [1]: 656 nM
O=C(Nc1ccccc1)N(CC1CCCC(N(Cc2cccc(Cl)c2)C(=O)c2cc(C(F)(F)F)cc(C(F)(F)F)c2)C1)c1cccc(OCCN2CCOCC2)c1 (centres unmarked) [compound 49] | 37 | –
O=C(Nc1ccccc1)N(CC1CCCC(N(Cc2cccc(Cl)c2)C(=O)c2ccc(-c3ccccc3)cc2)C1)c1cccc(OCCN2CCOCC2)c1 (centres unmarked) [compound 50] | 32 | –
COc1cccc(C(=O)N(Cc2cccc(Cl)c2)C2CCCC(CN(C(=O)Nc3ccccc3)c3cccc(OCCN4CCOCC4)c3)C2)c1 (centres unmarked) [compound 51] | 73 | IC50 [1]: 650 nM
CC(C)(C)C(=O)N(Cc1cccc(Cl)c1)C1CCCC(CN(C(=O)Nc2ccccc2)c2cccc(OCCN3CCOCC3)c2)C1 (centres unmarked) [compound 52] | 45 | –
O=C(Nc1ccccc1)N(CC1CCCC(N(Cc2cccc(Cl)c2)C(=O)CCc2ccccc2)C1)c1cccc(OCCN2CCOCC2)c1 (centres unmarked) [compound 53] | 52 | –
O=C(Nc1ccccc1)N(CC1CCCC(N(Cc2cccc(Cl)c2)C(=O)c2ccc3ccccc3c2)C1)c1cccc(OCCN2CCOCC2)c1 (centres unmarked) [compound 54] | 42 | –
